Data reported in patent US11591331B2, “PARP1 inhibitors and uses thereof” (Xinthera, Inc., priority 2021, dated 2023).

Columns and labels:
DLD-1 BRCA2(−/−) = test: Cell growth inhibition assay (CellTiter-Glo cell viability, 7 days); format: cell-based; details: Homo sapiens, 168 h, DLD-1 BRCA2(-/-) cells
[1] = tested on: MDA-MB-436 (mutated BRCA1) cell lines; test: as above; format: cell-based; details: Homo sapiens, 168 h, MDA-MB-436 cells

Structure (SMILES) | EC50 (DLD-1 BRCA2(−/−)) [nM] | EC50 [1] [nM]
CCc1cc2ncc(CN3CCN(c4ccc(C(=O)NC[C@H]5CCOC5)nc4)CC3)cc2[nH]c1=O [Example 41] | 2.4 | 1.9
CCc1cc2ncc(CN3CCN(c4ccc(C(=O)NC5CCOCC5)nc4)CC3)cc2[nH]c1=O [Example 44] | 7.4 | 5.3
CCc1cc2ncc(CN3CCN(c4ccc(C(=O)NC5COC5)nc4)CC3)cc2[nH]c1=O [Example 46] | 3.7 | 1.2
CCc1cc2ncc(CN3CCN(c4ccc(C(=O)N[C@H]5CCOC5)nc4)CC3)cc2[nH]c1=O [Example 47] | 7.7 | 3.3
CCc1cc2ncc(CN3CCN(c4ccc(C(=O)NCCC#N)nc4)CC3)cc2[nH]c1=O [Example 50] | 4.5 | 2.1
CCc1cc2ncc(CN3CCN(c4ccc(C(=O)NCC(C)(C)O)nc4)CC3)cc2[nH]c1=O [Example 52] | 12 | 4
CCc1cc2ncc(CN3CCN(c4ccc(C(=O)N[C@H]5C[C@](C)(O)C5)nc4)CC3)cc2[nH]c1=O [Example 55] | 11 | 1.4
CCc1cc2ncc(CN3CCN(c4ccc(C(=O)NC[C@@H](C)O)nc4)CC3)cc2[nH]c1=O [Example 57] | 11 | 3.6
CCc1cc2ncc(CN3CCN(c4ccc(C(=O)N[C@H](C)CO)nc4)CC3)cc2[nH]c1=O [Example 59] | 16 | 7.8
CCc1cc2ncc(CN3CCN(c4ccc(C(=O)NC[C@@H](C)OC)nc4)CC3)cc2[nH]c1=O [Example 60] | 14 | 5
CNC(=O)c1ccc(C2=CCN(Cc3cnc4cc(C5CC5)c(=O)[nH]c4c3)CC2)cn1 [Example 64] | 0.92 | 0.64
CNC(=O)c1ccc(N2CCN(Cc3cnc4cc(C)c(=O)[nH]c4c3)C[C@H]2C)c(C#N)n1 [Example 66] | 4.1 | 1.7
CCc1cc2ncc(CN3CCN(c4ccc(-c5cnc[nH]5)c(F)c4)CC3)cc2[nH]c1=O [Example 70] | 5.5 | 2.6
[2H]C([2H])([2H])NC(=O)c1ccc(N2CCN(Cc3ccc4c5c(c(=O)[nH]c4c3)CCO5)CC2)cn1 [Example 73] | 4.2 | 2.2
CNC(=O)c1ccc(N2CCN(Cc3cnc4cc(C5CC5)c(=O)[nH]c4c3)C[C@H]2C)cn1 [Example 74] | 7.8 | 3.9
CCc1cc2ncc(CN3CCN(c4ccc(C(=O)NC5COC5)nc4)[C@H](C)C3)cc2[nH]c1=O [Example 79] | 9.6 | 3.7
Cc1cc2ncc(CN3CCN(c4ccc(C(=O)NC5COC5)c(F)c4)CC3)cc2[nH]c1=O [Example 80] | 37 | 9.8
CCc1cc2nnc(CN3CCN(c4ccc(C(=O)NC)nc4)CC3)cc2[nH]c1=O [Example 86] | 6 | 6.1
CCc1nc2cnc(CN3CCN(c4ccc(C(=O)NC)nc4)CC3)cc2[nH]c1=O [Example 87] | 6.5 | 5.3
CCc1cc2ccc(CN3CCN(c4ccc(C(=O)NC)c(=O)n4C)CC3)cc2[nH]c1=O [Example 89] | 3.5 | 2.5
CCc1cc2ncc(CN3CCN(c4ccc(-n5cccn5)nc4)CC3)cc2[nH]c1=O [Example 92] | 11 | 10
[2H]C([2H])([2H])NC(=O)c1ccc(N2CCN(Cc3cnc4cc(CC)c(=O)[nH]c4c3)C[C@H]2C)c(C#N)n1 [Example 93] | 1.7 | 0.84
CNC(=O)c1ccc(N2CCN(Cc3cnc4c(C)c(C)c(=O)[nH]c4c3)CC2)cn1 [Example 95] | 3.9 | 2.9
CNC(=O)c1ccc(N2CCN(Cc3cnc4cc(C5CC5)c(=O)[nH]c4c3)CC2)c(C#N)n1 [Example 97] | 1.5 | 0.71
CCc1cc2ncc(CN3CCN(c4cnc(C(=O)NC5CC5)c(F)c4)CC3)cc2[nH]c1=O [Example 105] | 3.2 | 1.8
CCc1cc2ncc(CN3CCN(c4ccncn4)CC3)cc2[nH]c1=O [Example 106] | 5.7 | 6.6
CCc1cc2ncc(CN3CCN(c4ccnnc4C#N)CC3)cc2[nH]c1=O [Example 120] | 2.7 | 1.7

Further compounds by falling EC50 (DLD-1 BRCA2(−/−)), results first:

EC50 (DLD-1 BRCA2(−/−)) [nM] | EC50 [1] [nM] | Structure (SMILES)
39 | 41 | CNC(=O)c1ccc2c(c1F)OC[C@@H]1CN(Cc3cnc4cc(C)c(=O)[nH]c4c3)CCN21 [Example 94]
31 | 14 | Cc1cc2ncc(CN3CCN(c4cnc(C(=O)NC5CC5)c(F)c4)CC3)cc2[nH]c1=O [Example 108]
17 | 6.4 | CCc1cc2ncc(CN3CCN(c4cc(F)c(C(=O)NC)cn4)CC3)cc2[nH]c1=O [Example 51]
17 | 9.8 | CCc1cc2ncc(CN3CCN(c4ccc(NC(=O)N5CCOCC5)nc4)CC3)cc2[nH]c1=O [Example 101]
16 | 4.3 | CCc1cc2ncc(CN3CCN(c4ccc(C(=O)N[C@H]5C[C@@](C)(O)C5)nc4)CC3)cc2[nH]c1=O [Example 45]
15 | 5.6 | [2H]C([2H])([2H])C([2H])([2H])NC(=O)c1ccc(N2CCN(Cc3cnc4cc(C5CC5)c(=O)[nH]c4c3)CC2)n(C)c1=O [Example 123]
13 | 3.1 | CCc1cc2ncc(CN3CCN(c4ccc(C(=O)NC)c(=O)n4C)CC3)cc2[nH]c1=O [Example 65]
13 | 5.9 | CNC(=O)c1ncc(N2CCN(Cc3ccc4c5c(c(=O)[nH]c4c3)CCO5)CC2)cc1F [Example 71]
13 | 13 | CCc1nc2ncc(CN3CCN(c4ccc(C(=O)NC)nc4)CC3)cc2[nH]c1=O [Example 91]
13 | 18 | CCc1cc2ncc(CN3CCN(c4ccc(NC(=O)OC5COC5)nc4)CC3)cc2[nH]c1=O [Example 102]
10 | 7.8 | CCc1cc2ncc(CN3CCN(c4ccccn4)CC3)cc2[nH]c1=O [Example 82, 3-ethyl-7-{[4-(pyridin-2-yl)piperazin-1-yl]methyl}-1H-1,5-naphthyridin-2-one]
9.3 | 3.2 | Cc1cc2ncc(CN3CCN(c4ccc(C(=O)NC5CC5)nc4)CC3)cc2[nH]c1=O [Example 63]
8.5 | 5.8 | CNC(=O)c1ccc2c(n1)OC[C@@H]1CN(Cc3cnc4cc(C)c(=O)[nH]c4c3)CCN21 [Example 77]
7.6 | 5.3 | CNC(=O)c1ccc(N2CCN(Cc3cnc4cc(C)c(=O)[nH]c4c3)CC2)c(C#N)c1 [Example 38]
6.7 | 4.4 | CCc1cc2ncc(CN3CCN(c4ccc(C(=O)NC[C@@H]5CCOC5)nc4)CC3)cc2[nH]c1=O [Example 40]
6.3 | 4.8 | CCc1cc2ncc(CN3CCN(c4ccc(C(=O)NC)nn4)CC3)cc2[nH]c1=O [Example 61]
5.9 | 4.5 | O=C(NC1COC1)c1ccc(N2CCN(Cc3cnc4cc(C5CC5)c(=O)[nH]c4c3)CC2)cn1 [Example 81]
5.5 | 2.4 | CCc1cc2ncc(CN3CCN(c4ccc(C(=O)N[C@H]5CCC[C@@H]5O)nc4)CC3)cc2[nH]c1=O [Example 49]

EC50 (DLD-1 BRCA2(−/−)) [nM] | EC50 [1] [nM] | Structure (SMILES)
3.9 | 2.6 | CNC(=O)c1ncc(N2CCN(Cc3cnc4cc(C5CC5)c(=O)[nH]c4c3)CC2)cc1F [Example 100]
3.5 | 0.9 | CCc1cc2ncc(CN3CCN(c4ccc(C(=O)N[C@H]5C[C@@H](C#N)C5)nc4)CC3)cc2[nH]c1=O [Example 58]
3.3 | 2.7 | CCc1cc2ncc(CN3CCN(c4cnc(C(=O)NC)c(F)c4)[C@H](C)C3)cc2[nH]c1=O [Example 39]
3.3 | 4.1 | CCc1cc2ncc(CN3CCN(c4ccc(C(=O)NCCOC)nc4)CC3)cc2[nH]c1=O [Example 42]
2.8 | 1.8 | CNC(=O)c1ccc2c(n1)OC[C@@H]1CN(Cc3cnc4cc(C5CC5)c(=O)[nH]c4c3)CCN21 [Example 78]
2.7 | 1.7 | CCc1cc2ncc(CN3CCN(c4ccc(C(=O)N[C@@H]5CCOC5)nc4)CC3)cc2[nH]c1=O [Example 48]
2.6 | 1.5 | CCc1cc2ncc(CN3CCN(c4ccc(NC(=O)C5CC5)nc4)CC3)cc2[nH]c1=O [Example 75]
2.4 | 3.2 | CCc1cc2ncc(CN3CCN(c4ccc(C(=O)NC(C)C)nc4)CC3)cc2[nH]c1=O [Example 43]
2.2 | 2 | CNC(=O)c1ccc(N2CCN(Cc3cnc4c5c(c(=O)[nH]c4c3)CCC5)CC2)cn1 [Example 84]
2.1 | 1.2 | [2H]C([2H])(c1cnc2cc(C3CC3)c(=O)[nH]c2c1)N1CCN(c2ccc(C(=O)NC3CC3)nc2)CC1 [Example 117]
2 | 1.2 | [2H]C([2H])([2H])NC(=O)c1ccc(N2CCN(C([2H])([2H])c3cnc4cc(C5CC5)c(=O)[nH]c4c3)CC2)cn1 [Example 116]
1.9 | 1.3 | [2H]C([2H])(c1cnc2cc(C3CC3)c(=O)[nH]c2c1)N1CCN(c2ccc(C(=O)NC)nc2)CC1 [Example 115]
1.8 | 1.1 | [2H]C([2H])([2H])NC(=O)c1ccc(N2CCN(Cc3cnc4cc(C5CC5)c(=O)[nH]c4c3)CC2)cn1 [Example 67]
1.8 | 0.99 | [2H]C([2H])([2H])C([2H])([2H])NC(=O)c1ccc(N2CCN(Cc3cnc4cc(C5CC5)c(=O)[nH]c4c3)CC2)cn1 [Example 119]
1.5 | 1.4 | C#Cc1ccc(N2CCN(Cc3cnc4cc(CC)c(=O)[nH]c4c3)CC2)nc1 [Example 83]
1.4 | 1.4 | CNC(=O)c1ccc(N2CCN(Cc3cnc4cc(C5CCC5)c(=O)[nH]c4c3)CC2)cn1 [Example 104]
1.3 | 0.74 | CCc1cc2ncc(CN3CCN(c4ccncc4C#N)CC3)cc2[nH]c1=O [Example 118]
